Ends that are not written are not given here.
Legend:
[1] = biological target: Human Serum Albumin (Homo sapiens, UniProt P02768); assay: Biacore SPR, antibody variable domain peptides and antibodies against human serum albumin; assay type: binding; conditions: for binding to human serum albumin: Biacore SPR screen, immobilized HSA and vice versa; for Kd: human, Biacore SPR, CM5 amine coupling, peptide over immobilized HSA and vice versa, pM-uM, 1:1 fit, read-out: Kinetic Binding Parameters Against Human Serum Albumin: KD
Text: The 3D structure of the positive variable region peptides were predicted by PEPFOLD 3.0 to compare to their beta hairpin structure within the full antibody[9]-[11] (Fig. 4d). […] Peptides were run in the pM-uM concentration range. […] (b) Multiple sequence alignment of the variable region peptides in question, performed by Clustal Omega. […] (d) 3D structure prediction of peptides in solution performed by PEP-FOLD 3.0, visualized in Chimera. […] Pembrolizumab included as a negative control.

[2] = biological target: T1, HSA Peptide 40 (Homo sapiens, UniProt P02768); assay: biochemical; assay type: binding; conditions: for binding to HSA Peptide 40: Biacore SPR screen, immobilized HSA Peptide 40 and vice versa
T1 construct: HSA 40 (479-496); purchased New England Peptide (Gardner, MA, USA)
Procedure: All peptides were run in the pM-uM concentration ranges. […] Short gaps in binding curves at transition times are from removal of solvent spikes during analysis. Binding kinetics were determined via Biacore Evaluation Software analysis of SPR sensograms. […] Structure, PDB 1BJ1, was visualized using UCSF Chimera.
The 3D structure of the positive variable region peptides were predicted by PEPFOLD 3.0 to compare to their beta hairpin structure within the full antibody[9]–[11] (Fig. 4d).
Peptides were run in the pM-uM concentration range. […] (b) Multiple sequence alignment of the variable region peptides in question, performed by Clustal Omega. […] (d) 3D structure prediction of peptides in solution performed by PEP-FOLD 3.0, visualized in Chimera. […] Pembrolizumab included as a negative control.
Peptides were re-suspended and stored in HBS running buffer at either 5 or 10 mg/ml, with up to 10% DMSO added as needed. All antibodies, peptides, as well as HSA, were immobilized on Biacore (GE Healthcare, Chicago, IL) CM5 chips via amine coupling according to manufacture protocol. Immobilization scouting was performed with pH 4.0–5.5 acetate at micromolar concentration ranges, to determine ideal immobilization conditions. […] All peptides and proteins were screened at multiple concentrations from pico to millimolarity, with an association time of 120 to 180 seconds and a dissociation time from 180 to 1200 seconds. Binding kinetics were determined using Biacore Evaluation Software and a 1:1 fit model.
The mixture was frozen, evaporated, and re-suspended in HPLC grade water with 0.1% trifluoroacetic acid. The digest was applied to a Waters X-Bridge Protein BEH C4 column (Waters, Milford, MA) and eluted off at a flow rate of 1 ml/min and a gradient of 0–60% Acetonitrile with 0.1% trifluroacetic acid over 60 minutes.

Compound | binding to human serum albumin [1] | Kd [1] | binding to HSA Peptide 40 [2] | Kd [2] | kon ([2]; read-out: Kinetic Binding Parameters against HSA Peptide 40: kon)
CC(C)[C@H](NC(=O)[C@H](CC(N)=O)NC(=O)[C@H](Cc1ccccc1)NC(=O)[C@H](Cc1ccc(O)cc1)NC(=O)[C@H](Cc1c[nH]c2ccccc12)NC(=O)[C@H](CC(=O)O)NC(=O)CNC(=O)CNC(=O)[C@H](Cc1ccc(O)cc1)NC(=O)[C@H](Cc1ccc(O)cc1)NC(=O)[C@@H](NC(=O)[C@H](CO)NC(=O)[C@H](CCCNC(=N)N)NC(=O)[C@H](C)NC(=O)[C@H](CS)NC(=O)[C@@H](N)Cc1ccc(O)cc1)[C@@H](C)O)C(=O)N[C@@H](Cc1c[nH]c2ccccc12)C(=O)NCC(=O)N[C@@H](C)C(=O)NCC(=O)O [RVP1] | bound both | 2.48e+06 pM | bound both |  | 
DTAVYYCAKYPHYYGSSHWYF [BVP1] |  | 2.37e+06 pM |  |  | 
rituximab: commercial monoclonal antibody, anti-CD20 | do not bind HSA |  |  |  | 

Next, values leading:

binding to human serum albumin [1] | Kd [1] | binding to HSA Peptide 40 [2] | Kd [2] | kon ([2]; read-out: Kinetic Binding Parameters against HSA Peptide 40: kon) | Compound
 |  |  | 503 nM | 357 M⁻¹ s⁻¹ | HYYGSSHWYFDVWGQ [Bevacizumab Heavy Chain 11]
binding neither |  | binding neither |  |  | RVP2: Rituximab Variable Domain Peptide 2 (101-120)

Reference: article PMC5670201 (Scientific Reports, 2017)
